From US8557741B2, “3-aminocarbonyl-substituted benzoylcyclohexanediones and their use as herbicides” (Bayer CropScience AG, priority 2010, dated 2013)

Legend:
Type in all cases: in vivo
VIOTR [1] = assay: Post-emergence herbicidal action against harmful plants; details: dosage 20 g/ha, visual rating after about 3 weeks (Table F)
Procedure: (§1) Seeds of monocotyledonous and dicotyledonous weed and crop plants are placed in sandy loam in wood-fibre pots, covered with soil and cultivated in a greenhouse under good growth conditions. 2 to 3 weeks after sowing, the test plants are treated at the one-leaf stage. The compounds according to the invention, formulated in the form of wettable powders (WP) or as emulsion concentrates (EC), are then sprayed as aqueous suspension or emulsion at a water application rate of 600 to 800 I/ha (converted) with the addition of 0.2% of wetting agent onto the green parts of the plants. After the test plants have been kept in the greenhouse under optimum growth conditions for about 3 weeks, the activity of the preparations is rated visually in comparison to untreated controls (herbicidal activity in percent (%): 100% activity=the plants have died, 0% activity=control plants, —=not tested).

Abutilon theophrasti [2] = assay: as above; details: 504 h, read-out: Herbicidal action against ABUTH
Source text: as §1, with “The abbreviations used in the tables below denote: • ABUTH Abutilon theophrasti • AMARE Amaranthus retroflexus • ECHCG Echinochloa crus galli • PHBPU Phartoitis purpureum • STEME Stellaria media • ALOMY Alopecurus myosuroides • AVEFA Avena fatua • MATIN Matricaria inodora • POLCO Fallopia convolvulus • VERPE Veronica persica 1. Pre-emergence Herbicidal Action Against Harmful Plants Seeds” for “Seeds”

Stellaria media [3] = assay: as above; details: 504 h, read-out: Herbicidal action against STEME; for pest or weed control at 20 g/ha: dosage 20 g/ha, visual rating after about 3 weeks (Table F)
Source text: as §1, with “The abbreviations used in the tables below denote: • ABUTH Abutilon theophrasti • AMARE Amaranthus retroflexus • ECHCG Echinochloa crus galli • PHBPU Phartoitis purpureum • STEME Stellaria media • ALOMY Alopecurus myosuroides • AVEFA Avena fatua • MATIN Matricaria inodora • POLCO Fallopia convolvulus • VERPE Veronica persica 1. Pre-emergence Herbicidal Action Against Harmful Plants Seeds” for “Seeds”

Veronica persica [4] = assay: as above; details: 504 h, read-out: Herbicidal action against VERPE; for pest or weed control at 20 g/ha: dosage 20 g/ha, visual rating after about 3 weeks (Table F)
Source text: as §1, with “The abbreviations used in the tables below denote: • ABUTH Abutilon theophrasti • AMARE Amaranthus retroflexus • ECHCG Echinochloa crus galli • PHBPU Phartoitis purpureum • STEME Stellaria media • ALOMY Alopecurus myosuroides • AVEFA Avena fatua • MATIN Matricaria inodora • POLCO Fallopia convolvulus • VERPE Veronica persica 1. Pre-emergence Herbicidal Action Against Harmful Plants Seeds” for “Seeds”

Echinochloa crus galli [5] = assay: as above; details: 504 h, read-out: Herbicidal action against ECHCG
Source text: as §1, with “The abbreviations used in the tables below denote: • ABUTH Abutilon theophrasti • AMARE Amaranthus retroflexus • ECHCG Echinochloa crus galli • PHBPU Phartoitis purpureum • STEME Stellaria media • ALOMY Alopecurus myosuroides • AVEFA Avena fatua • MATIN Matricaria inodora • POLCO Fallopia convolvulus • VERPE Veronica persica 1. Pre-emergence Herbicidal Action Against Harmful Plants Seeds” for “Seeds”

Phartoitis purpureum = assay: as above; details: 504 h; for pest or weed control at 20 g/ha: dosage 20 g/ha, visual rating after about 3 weeks (Table F), read-out: Herbicidal action against PHPBU
Source text: as §1, with “The abbreviations used in the tables below denote: • ABUTH Abutilon theophrasti • AMARE Amaranthus retroflexus • ECHCG Echinochloa crus galli • PHBPU Phartoitis purpureum • STEME Stellaria media • ALOMY Alopecurus myosuroides • AVEFA Avena fatua • MATIN Matricaria inodora • POLCO Fallopia convolvulus • VERPE Veronica persica 1. Pre-emergence Herbicidal Action Against Harmful Plants Seeds” for “Seeds”

Abutilon theophrasti [6] = assay: Pre-emergence herbicidal action against harmful plants; details: Abutilon theophrasti, 504 h, read-out: Herbicidal action against ABUTH; for pest or weed control at 80 g/ha: dosage 80 g/ha, visual assessment after 3 weeks (Table B)
Source text: (§2) The abbreviations used in the tables below denote: • ABUTH Abutilon theophrasti • AMARE Amaranthus retroflexus • ECHCG Echinochloa crus galli • PHBPU Phartoitis purpureum • STEME Stellaria media • ALOMY Alopecurus myosuroides • AVEFA Avena fatua • MATIN Matricaria inodora • POLCO Fallopia convolvulus • VERPE Veronica persica 1. Pre-emergence Herbicidal Action Against Harmful Plants Seeds of monocotyledonous and dicotyledonous weed plants and crop plants are placed in wood-fibre pots in sandy loam and covered with soil. The compounds according to the invention and the compounds known from the prior art, formulated in the form of wettable powders (WP) or as emulsion concentrates (EC), are then applied as aqueous suspension or emulsion at a water application rate of 600 to 800 I/ha (converted) with the addition of 0.2% of wetting agent to the surface of the covering soil. After the treatment, the pots are placed in a greenhouse and kept under good growth conditions for the test plants. The visual assessment of the damage to the test plants is carried out after a trial period of 3 weeks by comparison with untreated controls (herbicidal activity in percent (%): 100% activity=the plants have died, 0% activity=like control plants, —=not tested). The results of comparative table A show the compounds according to the invention have a higher herbicidal activity than the compounds of the greatest structural similarity known from the closest prior art.

Veronica persica [7] = assay: as above; details: 504 h, read-out: Herbicidal action against VERPE
Source text: as §2

Amaranthus retroflexus [8] = assay: as above; details: 504 h, read-out: Herbicidal action against AMARE
Source text: as §2

VIOTR [9] = assay: as above; details: dosage 80 g/ha, visual assessment after 3 weeks (Table B)
Source text: as §2, with “Seeds” for “The abbreviations used in the tables below denote: • ABUTH Abutilon theophrasti • AMARE Amaranthus retroflexus • ECHCG Echinochloa crus galli • PHBPU Phartoitis purpureum • STEME Stellaria media • ALOMY Alopecurus myosuroides • AVEFA Avena fatua • MATIN Matricaria inodora • POLCO Fallopia convolvulus • VERPE Veronica persica 1. Pre-emergence Herbicidal Action Against Harmful Plants Seeds”

Matricaria inodora [10] = assay: Post-emergence herbicidal action against harmful plants; details: Tripleurospermum inodorum, 504 h, dosage 20 g/ha, visual rating after about 3 weeks (Table F), read-out: Herbicidal action against MATIN
Source text: as §1, with “The abbreviations used in the tables below denote: • ABUTH Abutilon theophrasti • AMARE Amaranthus retroflexus • ECHCG Echinochloa crus galli • PHBPU Phartoitis purpureum • STEME Stellaria media • ALOMY Alopecurus myosuroides • AVEFA Avena fatua • MATIN Matricaria inodora • POLCO Fallopia convolvulus • VERPE Veronica persica 1. Pre-emergence Herbicidal Action Against Harmful Plants Seeds” for “Seeds”

Amaranthus retroflexus [11] = assay: as above; details: 504 h, read-out: Herbicidal action against AMARE; for pest or weed control at 20 g/ha: dosage 20 g/ha, visual rating after about 3 weeks (Table F)
Source text: as §1, with “The abbreviations used in the tables below denote: • ABUTH Abutilon theophrasti • AMARE Amaranthus retroflexus • ECHCG Echinochloa crus galli • PHBPU Phartoitis purpureum • STEME Stellaria media • ALOMY Alopecurus myosuroides • AVEFA Avena fatua • MATIN Matricaria inodora • POLCO Fallopia convolvulus • VERPE Veronica persica 1. Pre-emergence Herbicidal Action Against Harmful Plants Seeds” for “Seeds”

Stellaria media [12] = assay: Pre-emergence herbicidal action against harmful plants; details: 504 h, read-out: Herbicidal action against STEME; for pest or weed control at 80 g/ha: dosage 80 g/ha, visual assessment after 3 weeks (Table B)
Source text: as §2

Fallopia convolvulus = assay: Post-emergence herbicidal action against harmful plants; details: 504 h, dosage 80 g/ha, visual rating after about 3 weeks (Table D), read-out: Herbicidal action against POLCO
Source text: as §1, with “The abbreviations used in the tables below denote: • ABUTH Abutilon theophrasti • AMARE Amaranthus retroflexus • ECHCG Echinochloa crus galli • PHBPU Phartoitis purpureum • STEME Stellaria media • ALOMY Alopecurus myosuroides • AVEFA Avena fatua • MATIN Matricaria inodora • POLCO Fallopia convolvulus • VERPE Veronica persica 1. Pre-emergence Herbicidal Action Against Harmful Plants Seeds” for “Seeds”

Alopecurus myosuroides = assay: Pre-emergence herbicidal action against harmful plants; details: dosage 320 g/ha, visual assessment after 3 weeks (Table A)
Source text: as §2

Echinochloa crus galli [13] = assay: as above; details: Echinochloa, 504 h, dosage 320 g/ha, visual assessment after 3 weeks (Table A), read-out: Herbicidal action against ECHCG
Source text: as §2

Matricaria inodora [14] = assay: as above; details: Tripleurospermum inodorum, 504 h, dosage 320 g/ha, visual assessment after 3 weeks (Table A), read-out: Herbicidal action against MATIN
Source text: as §2

[15] = dosage 20 g/ha, visual rating after about 3 weeks (Table F)
[16] = dosage 80 g/ha, visual assessment after 3 weeks (Table B)
[17] = dosage 80 g/ha, visual rating after about 3 weeks (Table D)
[18] = dosage 320 g/ha, visual assessment after 3 weeks (Table A)

| SMILES | Herbicidal action against VIOTR (VIOTR [1]) [%] | pest or weed control at 20 g/ha (Stellaria media [3]) [%] | pest or weed control at 20 g/ha (Veronica persica [4]) [%] | pest or weed control at 20 g/ha (Phartoitis purpureum) [%] | pest or weed control at 80 g/ha (Abutilon theophrasti [6]) [%] | Herbicidal action against VIOTR (VIOTR [9]) [%] | pest or weed control at 20 g/ha (Matricaria inodora [10]) [%] | pest or weed control at 20 g/ha (Amaranthus retroflexus [11]) [%] | pest or weed control at 80 g/ha (Stellaria media [12]) [%] | also measured |
| --- | --- | --- | --- | --- | --- | --- | --- | --- | --- | --- |
| CCS(=O)(=O)c1ccc(C(=O)C2=C(SCC(=O)OC)CCCC2=O)c(Cl)c1OCC(=O)N(C)C [Compound S9, reference compound] | 60 | 70 | 80 | 60 | 20 | – | – | – | – | pest or weed control at 20 g/ha (Abutilon theophrasti [2]; [15]): 80%; pest or weed control at 20 g/ha (Echinochloa crus galli [5]; [15]): 90%; pest or weed control at 80 g/ha (Veronica persica [7]; [16]): 20%; pest or weed control at 80 g/ha (Amaranthus retroflexus [8]; [16]): 40% |
| CCS(=O)(=O)c1ccc(C(=O)C2=C(O)CCCC2=O)c(C(F)(F)F)c1OC(C)C(=O)NC (centres unmarked) [Compound E11] | 100 | 90 | 100 | 80 | 90 | 90 | 90 | 100 | 70 | – |
| CCS(=O)(=O)c1ccc(C(=O)C2=C(O)CCCC2=O)c(Cl)c1OC(C)C(=O)NC (centres unmarked) [Compound S11, reference compound] | 70 | 80 | 90 | 70 | 70 | 40 | 70 | 90 | 30 | – |
| CCS(=O)(=O)c1ccc(C(=O)C2=C(O)CCCC2=O)c(C(F)(F)F)c1OCC(=O)N(C)C [Compound E5] | – | – | – | – | – | – | – | – | – | pest or weed control at 80 g/ha (Abutilon theophrasti [2]; [17]): 90%; pest or weed control at 80 g/ha (Stellaria media [3]; [17]): 90%; pest or weed control at 80 g/ha (Veronica persica [4]; [17]): 100%; pest or weed control at 80 g/ha (Fallopia convolvulus): 80%; pest or weed control at 80 g/ha (Echinochloa crus galli [5]; [17]): 90%; pest or weed control at 80 g/ha (Phartoitis purpureum; dosage 80 g/ha, visual rating after about 3 weeks (Table D), read-out: Herbicidal action against PHBPU): 90%; pest or weed control at 80 g/ha (Amaranthus retroflexus [11]; [17]): 80%; pest or weed control at 320 g/ha (Abutilon theophrasti [6]; [18]): 100%; pest or weed control at 320 g/ha (Stellaria media [12]; [18]): 90%; Herbicidal action against ALOMY (Alopecurus myosuroides): 100%; pest or weed control at 320 g/ha (Veronica persica [7]; [18]): 100%; pest or weed control at 320 g/ha (Echinochloa crus galli [13]): 100%; pest or weed control at 320 g/ha (Matricaria inodora [14]): 100%; pest or weed control at 320 g/ha (Amaranthus retroflexus [8]; [18]): 100% |
